Among the test systems are CCRF-CEM leukemia; HCT-15 colon; HL-60(TB) leukemia; HOP-62 NSCLC; HT29 colon; M14 melanoma; NCI-H460 lung; SN12C renal; SNB-19 CNS; SW-620 colon; TK-10 renal; UACC-62 melanoma; SK-MEL-2 melanoma; SK-MEL-5 melanoma.
Assay in all cases: NCI anticancer screen, dose series, 48 h

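Results reflect a 48-hour exposure of cells in 96-well plates to compound at five concentrations. Definition used: TGI = concentration required for complete inhibition of growth.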 Some results are limits rather than exact numbers.

Regarding `CCN(N=O)C1C2(CCCC2)NC(=O)C12CCCC2` (centres undefined), the TGI in the assay with CCRF-CEM leukemia, with HCT-15 colon, in the assay with HL-60(TB) leukemia, in the assay on HOP-62 NSCLC, in the assay with HT29 colon and in the assay on M14 melanoma was over 100 µM throughout. The TGI in the assay on NCI-H460 lung, with SN12C renal, in the assay with SNB-19 CNS, in the assay with SW-620 colon, in the assay with TK-10 renal and in the assay with UACC-62 melanoma was over 100 µM in each case.

For `Cc1c(-c2coc(-c3ccc([N+](=O)[O-])cc3)n2)c(=O)n(-c2ccccc2)n1C`, the TGI in the assay on CCRF-CEM leukemia, in the assay on HCT-15 colon, in the assay with HL-60(TB) leukemia, in the assay on HOP-62 NSCLC, in the assay with HT29 colon and with M14 melanoma was over 100 µM each time. Besides, the TGI in the assay with NCI-H460 lung, in the assay on SK-MEL-2 melanoma, in the assay with SK-MEL-5 melanoma, in the assay with SN12C renal, in the assay on TK-10 renal and in the assay with UACC-62 melanoma was over 100 µM throughout.

Turning to `COC(=O)C(=O)C(C(=O)OC)C(=O)C(=O)Nc1cc(Cl)c(C)cc1S(=O)(=O)O` (centres undefined), the TGI with CCRF-CEM leukemia, in the assay on HCT-15 colon, with HL-60(TB) leukemia, in the assay on HOP-62 NSCLC, with HT29 colon and in the assay with M14 melanoma was over 100 µM in each case. Besides, the TGI with NCI-H460 lung, in the assay on SK-MEL-2 melanoma, in the assay on SK-MEL-5 melanoma, with SN12C renal, with SNB-19 CNS and with SW-620 colon was over 100 µM throughout. Besides, the TGI in the assay on TK-10 renal and with UACC-62 melanoma was over 100 µM in each case.

As to `COc1cc2ccnc(C#N)c2cc1OCc1ccccc1`, the TGI in the assay on CCRF-CEM leukemia, with HCT-15 colon, with HOP-62 NSCLC, in the assay on HT29 colon, in the assay with M14 melanoma and in the assay with NCI-H460 lung was over 100 µM throughout. Also, the TGI with SK-MEL-2 melanoma, in the assay with SK-MEL-5 melanoma, with SN12C renal, with SNB-19 CNS, in the assay with SW-620 colon and with TK-10 renal was over 100 µM each time.

On to `O=C(O)C12C3CCC(C3)C1(C(=O)O)C1CCC2C1` (centres undefined), for which the TGI with CCRF-CEM leukemia is 95 µM; with HCT-15 colon it was over 100 µM; with HL-60(TB) leukemia, over 100 µM; in the assay on HOP-62 NSCLC it was over 100 µM; in the assay on HT29 colon it was over 100 µM; with M14 melanoma it was over 100 µM. Also, the TGI in the assay on NCI-H460 lung is over 100 µM; in the assay on SK-MEL-2 melanoma it was over 100 µM; in the assay with SK-MEL-5 melanoma it was over 100 µM; in the assay with SN12C renal, over 100 µM; in the assay on SNB-19 CNS, over 100 µM; in the assay on SW-620 colon it was 34.2 µM. In addition, the TGI with TK-10 renal and with UACC-62 melanoma was over 100 µM each time.

For the compound `O=C(c1ccccc1)n1cc(/C=C/[N+](=O)[O-])c2ccccc21`, the TGI is 35.1 µM in the assay on CCRF-CEM leukemia; 39.8 µM in the assay on HCT-15 colon; 13.3 µM in the assay on HL-60(TB) leukemia; over 100 µM in the assay with HOP-62 NSCLC; over 100 µM in the assay with HT29 colon; 41 µM in the assay on M14 melanoma. Moreover, the TGI in the assay with NCI-H460 lung was 43.3 µM; in the assay with SK-MEL-2 melanoma it was 35.6 µM; with SK-MEL-5 melanoma it was over 100 µM; in the assay on SN12C renal it was over 100 µM; in the assay with SNB-19 CNS, 92.3 µM; in the assay with SW-620 colon, 38.1 µM. The figures for the TGI in the assay on TK-10 renal and in the assay with UACC-62 melanoma were over 100 µM and 36.9 µM, respectively.

On to `CN(C)CC1(Cc2ccccc2)CC/C(=C\c2ccccc2)C1=O` (centres undefined), for which the TGI in the assay with CCRF-CEM leukemia is 59.9 µM; with HCT-15 colon, 42.1 µM; in the assay on HL-60(TB) leukemia it was 48.7 µM; in the assay with HOP-62 NSCLC it was over 100 µM; with HT29 colon, 52.6 µM; in the assay with M14 melanoma it was over 100 µM. In addition, the TGI with NCI-H460 lung is 68.3 µM; in the assay with SK-MEL-2 melanoma, over 100 µM; in the assay on SK-MEL-5 melanoma, 64.3 µM; in the assay with SN12C renal it was over 100 µM; in the assay on SNB-19 CNS, 63.3 µM; in the assay on SW-620 colon, 60.3 µM. Besides, the TGI in the assay with TK-10 renal and in the assay with UACC-62 melanoma was over 100 µM in each case.

As for `O=C1CCC(=O)c2ccccc2N1`, the TGI in the assay with CCRF-CEM leukemia, with HCT-15 colon, in the assay on HL-60(TB) leukemia, with HOP-62 NSCLC, with HT29 colon and in the assay on M14 melanoma was over 100 µM each time. Further, the TGI in the assay on NCI-H460 lung, with SK-MEL-2 melanoma, in the assay on SK-MEL-5 melanoma, in the assay on SN12C renal, with SNB-19 CNS and in the assay on SW-620 colon was over 100 µM throughout. Further, the TGI in the assay with TK-10 renal was over 100 µM.

Take `CN1CCS(=O)(=O)NC(Cc2ccccc2)C(=O)N2CCCC2C1=O` (centres undefined): the TGI in the assay with CCRF-CEM leukemia, in the assay on HCT-15 colon, with HL-60(TB) leukemia, in the assay with HOP-62 NSCLC, in the assay with HT29 colon and in the assay with SK-MEL-2 melanoma was over 100 µM each time. Further, the TGI with SK-MEL-5 melanoma, in the assay with SN12C renal, in the assay with SNB-19 CNS, in the assay with SW-620 colon, in the assay on TK-10 renal and in the assay on UACC-62 melanoma was over 100 µM throughout.

On to `NNC(=O)/C(NC(=O)c1ccccc1)=C(\N)c1cccc([N+](=O)[O-])c1`, for which the TGI in the assay with CCRF-CEM leukemia, in the assay on HCT-15 colon, in the assay with HL-60(TB) leukemia, with HOP-62 NSCLC, in the assay with HT29 colon and with M14 melanoma was over 100 µM throughout. Besides, the TGI in the assay with NCI-H460 lung, with SK-MEL-2 melanoma, with SK-MEL-5 melanoma, in the assay on SN12C renal, in the assay on SNB-19 CNS and with SW-620 colon was over 100 µM in each case. For the same compound, the TGI in the assay on TK-10 renal and in the assay with UACC-62 melanoma was over 100 µM in each case.

On to `c1cc2c(cc1C1OCC3C(c4ccc5c(c4)OCO5)OCC13)OCO2` (centres undefined), for which the TGI in the assay with CCRF-CEM leukemia, in the assay with HCT-15 colon, with HOP-62 NSCLC, in the assay on HT29 colon, in the assay with M14 melanoma and with NCI-H460 lung was over 100 µM each time. Besides, the TGI in the assay with SK-MEL-2 melanoma is over 100 µM; in the assay with SK-MEL-5 melanoma, 83.7 µM; in the assay on SN12C renal, over 100 µM; with SNB-19 CNS it was over 100 µM; in the assay with SW-620 colon, over 100 µM; in the assay on TK-10 renal, over 100 µM. This compound also yielded a TGI in the assay with UACC-62 melanoma of over 100 µM.

For the origin of these results see PubChem BioAssay (NCI).
